Columns and labels:
[1] = test system: keratinocytes and LCs or fibroblasts and DDC in co-culture; assay: Cytokine secretion in monolayer pluricellular co-culture models under the effect of an active ingredient; assay type: cell-based, human; settings: retinol 0.05% final concentration in culture medium for 3 days
From the text: (§1) 1 to 2.10^6 human keratinocytes and 1 to 2.10^6 human monocytes (obtained according to Example 1 or 2) are jointly grown in a nutritious medium, for example of the K-SFM type, in culture dishes, for example of the 6-well plate type. The joint culture is maintained for 6 days in a nutritious medium, for example of the K-SFM type, without adding any exogenous cytokine.
as §1, with “fibroblasts” for “keratinocytes”, “FBM” for “K-SFM”, “dishes” for “dishes,”
In order to assess the irritating, sensitizing, allergizing potency, and to estimate a possible pro- or anti-inflammatory activity of an active ingredient intended for human skin, we quantify in the culture supernatants, secretion of cytokines, for example, IL-1, IL-6, IL-8, IL-10, TNF-[…] INF[…], according to the following protocol: • The model is made according to the protocol described in Example 3 or 4. • Retinol is then added into the culture medium at a final concentration of 0.05% for 3 days. • The culture supernatants are then recovered and analyzed.

[2] = test system: pro-inflammatory cytokines (IL-1, IL-6, IL-8, TNF-alpha, INF-gamma); assay: CBA flux cytometry dosage of cytokine secretion in culture supernatants of UV-irradiated reconstructed skin; assay type: cell-based, human; settings: for efficiency on cell viability and synthesis of pro-inflammatory interleukins after solar UV stress: both parameters (cell mortality, pro-inflammatory molecules), UV-irradiated reconstructed skin; for TNFβ / IL1β / IL8 / IL6: reconstructed skin UV irradiated + formulation with 3% active, 10 days; for TNFβ: control 53, UV irradiated 152; for IL1β: control 76, UV irradiated 179; for IL8: control 275, UV irradiated 395; for IL6: control 379, UV irradiated 649
From the text: The model was made according to the following protocol: • The reconstructed dermis model containing DCCs, macrophages and endothelial cells was made according to Example 12. • The reconstructed skin model containing LCs was made according to Example 14.

Row | Compound | secretion of pro-inflammatory cytokines [1] | efficiency on cell viability and synthesis of pro-inflammatory interleukins after solar UV stress [2] | TNFβ [2] [pg/mL] | IL1β [2] [pg/mL] | IL8 [2] [pg/mL] | IL6 [2] [pg/mL]
1 | CC1=C(/C=C/C(C)=C/C=C/C(C)=C/CO)C(C)(C)CCC1 [retinol, Retinol] | stimulation of secretion of pro-inflammatory cytokines |  |  |  |  | 
2 | Hesperitine Laurate [Flavagrum] |  | demonstrated efficiency with a possible tendency to restore the reference level | 105 | 125 | 312 | 452
3 | Quercitine Caprylate [Flavenger] |  | demonstrated efficiency with a possible tendency to restore the reference level | 89 | 97 | 294 | 426

Reference: patent US20100297765A1 (priority 2006, published 2010)
